Key:
[1] = target: Protein kinase C epsilon type (Homo sapiens) (UniProt Q02156); conditions: Compound concentration 100.0 nM
[2] = target: Rhodopsin kinase GRK1 (Homo sapiens) (UniProt Q15835); conditions: Compound concentration 100.0 nM
[3] = target: Serine/threonine-protein kinase PRP4 homolog (Homo sapiens) (UniProt Q13523); conditions: Compound concentration 100.0 nM
[4] = target: Epidermal growth factor receptor (Homo sapiens) (UniProt P00533); conditions: Compound concentration 100.0 nM
[5] = system: Receptor-type tyrosine-protein kinase FLT3 (Homo sapiens), P36888 [D835H]; conditions: Compound concentration 100.0 nM
[6] = target: Serine/threonine-protein kinase NLK (Homo sapiens) (UniProt Q9UBE8); conditions: Compound concentration 100.0 nM
[7] = target: Myosin light chain kinase family member 4 (Homo sapiens) (UniProt Q86YV6); conditions: Compound concentration 100.0 nM
[8] = target: Dual specificity tyrosine-phosphorylation-regulated kinase 1A (Homo sapiens) (UniProt Q13627); conditions: Compound concentration 100.0 nM
[9] = target: MAP/microtubule affinity-regulating kinase 3 (Homo sapiens) (UniProt P27448); conditions: Compound concentration 100.0 nM
[10] = target: Myosin-IIIb (Homo sapiens) (UniProt Q8WXR4); conditions: Compound concentration 100.0 nM
[11] = target: Serine/threonine-protein kinase ULK3 (Homo sapiens) (UniProt Q6PHR2); conditions: Compound concentration 100.0 nM
[12] = system: Tyrosine-protein kinase ABL1 (Homo sapiens), P00519 [Y253F]; conditions: Compound concentration 100.0 nM
[13] = target: High affinity nerve growth factor receptor (Homo sapiens) (UniProt P04629); conditions: Compound concentration 100.0 nM
High affinity nerve growth factor receptor (Homo sapiens), sequence (P04629 33-796 limits assumed): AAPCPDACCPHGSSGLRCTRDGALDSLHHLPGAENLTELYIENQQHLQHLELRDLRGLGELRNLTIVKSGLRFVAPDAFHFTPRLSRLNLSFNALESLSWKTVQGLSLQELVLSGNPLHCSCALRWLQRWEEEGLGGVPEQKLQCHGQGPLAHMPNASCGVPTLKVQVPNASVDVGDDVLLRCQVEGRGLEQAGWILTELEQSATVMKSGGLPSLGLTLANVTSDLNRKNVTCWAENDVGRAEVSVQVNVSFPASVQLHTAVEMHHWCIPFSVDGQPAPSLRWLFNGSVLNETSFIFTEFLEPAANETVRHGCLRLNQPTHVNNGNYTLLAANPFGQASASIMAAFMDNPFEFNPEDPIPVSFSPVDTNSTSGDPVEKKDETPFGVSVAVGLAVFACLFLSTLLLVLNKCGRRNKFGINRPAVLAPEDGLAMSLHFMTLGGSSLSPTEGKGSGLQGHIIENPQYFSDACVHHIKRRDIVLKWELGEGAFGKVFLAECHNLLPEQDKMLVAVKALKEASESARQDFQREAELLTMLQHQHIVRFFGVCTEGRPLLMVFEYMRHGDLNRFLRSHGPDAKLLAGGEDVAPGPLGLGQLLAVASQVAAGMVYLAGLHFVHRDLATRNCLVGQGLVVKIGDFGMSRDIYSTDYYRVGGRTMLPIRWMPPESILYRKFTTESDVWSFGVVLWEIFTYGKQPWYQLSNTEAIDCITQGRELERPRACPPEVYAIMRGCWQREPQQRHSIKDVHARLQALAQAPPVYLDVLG

[14] = target: D(4) dopamine receptor (Homo sapiens) (UniProt P21917); conditions: Compound concentration 10.0 uM
[15] = target: Serine/threonine-protein kinase TAO1 (Homo sapiens) (UniProt Q7L7X3); conditions: Compound concentration 100.0 nM
[16] = target: Cyclin-dependent kinase 17 (Homo sapiens) (UniProt Q00537); conditions: Compound concentration 100.0 nM
[17] = target: Fibroblast growth factor receptor 1 (Homo sapiens) (UniProt P11362); conditions: Compound concentration 100.0 nM
Fibroblast growth factor receptor 1 (Homo sapiens), sequence (P11362 22-822 limits assumed): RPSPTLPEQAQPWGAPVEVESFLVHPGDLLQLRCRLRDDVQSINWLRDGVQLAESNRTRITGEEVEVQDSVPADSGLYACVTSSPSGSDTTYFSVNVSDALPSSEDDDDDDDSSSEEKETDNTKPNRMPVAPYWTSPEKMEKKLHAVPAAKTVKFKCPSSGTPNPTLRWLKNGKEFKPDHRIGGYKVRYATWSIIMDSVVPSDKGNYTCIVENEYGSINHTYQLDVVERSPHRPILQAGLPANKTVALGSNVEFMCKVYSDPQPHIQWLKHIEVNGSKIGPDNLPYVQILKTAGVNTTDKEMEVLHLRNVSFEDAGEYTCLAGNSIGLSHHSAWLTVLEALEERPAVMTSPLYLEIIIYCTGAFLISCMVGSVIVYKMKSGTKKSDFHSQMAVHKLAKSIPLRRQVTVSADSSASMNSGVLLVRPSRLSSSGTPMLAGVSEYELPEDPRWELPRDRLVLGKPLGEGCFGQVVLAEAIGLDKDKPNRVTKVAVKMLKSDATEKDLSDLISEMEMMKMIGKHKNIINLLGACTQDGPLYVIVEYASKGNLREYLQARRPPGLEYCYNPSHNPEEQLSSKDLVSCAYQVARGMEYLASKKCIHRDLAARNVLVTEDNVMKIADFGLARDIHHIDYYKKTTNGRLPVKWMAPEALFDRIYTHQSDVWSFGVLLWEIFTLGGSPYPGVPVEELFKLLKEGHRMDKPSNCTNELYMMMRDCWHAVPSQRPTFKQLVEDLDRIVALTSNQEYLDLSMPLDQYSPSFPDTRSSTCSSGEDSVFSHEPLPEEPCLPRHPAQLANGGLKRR

[18] = target: T1, Muscarinic acetylcholine receptor M5 (Homo sapiens) (UniProt P08912); conditions: Compound concentration 10.0 uM
T1 sequence (whole entry): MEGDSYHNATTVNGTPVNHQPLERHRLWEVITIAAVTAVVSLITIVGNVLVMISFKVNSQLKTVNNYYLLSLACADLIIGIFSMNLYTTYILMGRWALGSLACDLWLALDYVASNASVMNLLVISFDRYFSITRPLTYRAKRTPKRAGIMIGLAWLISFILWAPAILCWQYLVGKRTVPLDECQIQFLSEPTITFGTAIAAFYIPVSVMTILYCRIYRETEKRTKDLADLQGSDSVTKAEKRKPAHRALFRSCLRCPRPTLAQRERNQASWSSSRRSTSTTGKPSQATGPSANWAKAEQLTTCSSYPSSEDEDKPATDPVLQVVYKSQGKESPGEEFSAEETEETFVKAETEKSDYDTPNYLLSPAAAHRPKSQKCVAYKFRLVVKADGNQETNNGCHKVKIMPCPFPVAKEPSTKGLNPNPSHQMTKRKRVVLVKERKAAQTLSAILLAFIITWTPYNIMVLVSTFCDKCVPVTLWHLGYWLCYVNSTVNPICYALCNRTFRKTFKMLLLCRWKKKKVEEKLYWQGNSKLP

[19] = target: Mitogen-activated protein kinase 10 (Homo sapiens) (UniProt P53779); conditions: Compound concentration 100.0 nM
[20] = target: Cyclin-dependent kinase-like 2 (Homo sapiens) (UniProt Q92772); conditions: Compound concentration 100.0 nM
[21] = target: Tyrosine-protein kinase Fyn (Homo sapiens) (UniProt P06241); conditions: Compound concentration 100.0 nM
Tyrosine-protein kinase Fyn (Homo sapiens), sequence (P06241 2-537 limits assumed): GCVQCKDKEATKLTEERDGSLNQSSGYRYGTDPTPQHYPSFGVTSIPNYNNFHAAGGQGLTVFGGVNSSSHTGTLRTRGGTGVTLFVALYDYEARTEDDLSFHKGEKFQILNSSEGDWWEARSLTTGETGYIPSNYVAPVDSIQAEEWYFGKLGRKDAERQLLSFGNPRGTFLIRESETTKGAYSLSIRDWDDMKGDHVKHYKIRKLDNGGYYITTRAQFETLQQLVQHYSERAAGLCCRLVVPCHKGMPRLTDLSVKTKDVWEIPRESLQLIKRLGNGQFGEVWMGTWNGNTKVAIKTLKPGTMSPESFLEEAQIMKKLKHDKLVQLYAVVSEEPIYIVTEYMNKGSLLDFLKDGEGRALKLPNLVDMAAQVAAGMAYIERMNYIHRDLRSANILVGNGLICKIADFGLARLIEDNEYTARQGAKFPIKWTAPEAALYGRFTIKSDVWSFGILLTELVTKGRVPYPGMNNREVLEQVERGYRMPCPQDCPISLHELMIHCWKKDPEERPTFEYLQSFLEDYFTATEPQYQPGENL

[22] = target: Membrane-associated tyrosine- and threonine-specific cdc2-inhibitory kinase (Homo sapiens) (UniProt Q99640); conditions: Compound concentration 100.0 nM
[23] = target: Cyclin-dependent kinase 5 (Homo sapiens) (UniProt Q00535); conditions: Compound concentration 100.0 nM
Cyclin-dependent kinase 5 (Homo sapiens), sequence (Q00535 whole entry, looked up): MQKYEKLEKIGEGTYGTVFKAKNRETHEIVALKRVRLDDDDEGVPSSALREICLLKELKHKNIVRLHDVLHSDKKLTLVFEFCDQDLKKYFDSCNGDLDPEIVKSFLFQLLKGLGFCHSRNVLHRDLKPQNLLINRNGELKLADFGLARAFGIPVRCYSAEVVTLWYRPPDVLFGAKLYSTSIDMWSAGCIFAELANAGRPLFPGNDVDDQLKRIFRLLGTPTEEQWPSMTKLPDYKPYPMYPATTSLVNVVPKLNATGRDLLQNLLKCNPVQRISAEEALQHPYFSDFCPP

[24] = system: Mast/stem cell growth factor receptor Kit (Homo sapiens), P10721 [A829P]; conditions: Compound concentration 100.0 nM
[25] = target: Serine/threonine-protein kinase Nek2 (Homo sapiens) (UniProt P51955); conditions: Compound concentration 100.0 nM
Serine/threonine-protein kinase Nek2 (Homo sapiens), sequence (P51955 whole entry): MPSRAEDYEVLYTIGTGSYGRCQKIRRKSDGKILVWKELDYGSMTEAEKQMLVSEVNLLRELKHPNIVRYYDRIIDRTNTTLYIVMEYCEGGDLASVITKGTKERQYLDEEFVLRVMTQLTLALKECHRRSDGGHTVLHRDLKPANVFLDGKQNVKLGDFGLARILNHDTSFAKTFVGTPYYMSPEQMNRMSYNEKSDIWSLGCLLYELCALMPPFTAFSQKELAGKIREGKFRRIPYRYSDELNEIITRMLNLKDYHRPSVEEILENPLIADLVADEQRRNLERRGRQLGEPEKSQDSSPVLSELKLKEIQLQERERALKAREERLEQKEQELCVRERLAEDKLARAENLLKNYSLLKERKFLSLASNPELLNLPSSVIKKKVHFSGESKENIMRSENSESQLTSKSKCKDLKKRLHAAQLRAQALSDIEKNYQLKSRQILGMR

[26] = system: Hepatocyte growth factor receptor (Homo sapiens), P08581 [M1250T]; conditions: Compound concentration 100.0 nM
[27] = target: TRAF2 and NCK-interacting protein kinase (Homo sapiens) (UniProt Q9UKE5); conditions: Compound concentration 100.0 nM
[28] = target: Ephrin type-A receptor 3 (Homo sapiens) (UniProt P29320); conditions: Compound concentration 100.0 nM
[29] = target: Mitogen-activated protein kinase kinase kinase 5 (Homo sapiens) (UniProt Q99683); conditions: Compound concentration 100.0 nM
[30] = target: Calcium/calmodulin-dependent protein kinase type II subunit delta (Homo sapiens) (UniProt Q13557); conditions: Compound concentration 100.0 nM
[31] = target: Cyclin-dependent kinase 7 (Homo sapiens) (UniProt P50613); conditions: Compound concentration 100.0 nM
[32] = target: Serine/threonine-protein kinase MARK1 (Homo sapiens) (UniProt Q9P0L2); conditions: Compound concentration 100.0 nM
[33] = target: Serine/threonine-protein kinase TAO2 (Homo sapiens) (UniProt Q9UL54); conditions: Compound concentration 100.0 nM

Epidermal growth factor receptor (Homo sapiens), sequence (P00533 whole entry): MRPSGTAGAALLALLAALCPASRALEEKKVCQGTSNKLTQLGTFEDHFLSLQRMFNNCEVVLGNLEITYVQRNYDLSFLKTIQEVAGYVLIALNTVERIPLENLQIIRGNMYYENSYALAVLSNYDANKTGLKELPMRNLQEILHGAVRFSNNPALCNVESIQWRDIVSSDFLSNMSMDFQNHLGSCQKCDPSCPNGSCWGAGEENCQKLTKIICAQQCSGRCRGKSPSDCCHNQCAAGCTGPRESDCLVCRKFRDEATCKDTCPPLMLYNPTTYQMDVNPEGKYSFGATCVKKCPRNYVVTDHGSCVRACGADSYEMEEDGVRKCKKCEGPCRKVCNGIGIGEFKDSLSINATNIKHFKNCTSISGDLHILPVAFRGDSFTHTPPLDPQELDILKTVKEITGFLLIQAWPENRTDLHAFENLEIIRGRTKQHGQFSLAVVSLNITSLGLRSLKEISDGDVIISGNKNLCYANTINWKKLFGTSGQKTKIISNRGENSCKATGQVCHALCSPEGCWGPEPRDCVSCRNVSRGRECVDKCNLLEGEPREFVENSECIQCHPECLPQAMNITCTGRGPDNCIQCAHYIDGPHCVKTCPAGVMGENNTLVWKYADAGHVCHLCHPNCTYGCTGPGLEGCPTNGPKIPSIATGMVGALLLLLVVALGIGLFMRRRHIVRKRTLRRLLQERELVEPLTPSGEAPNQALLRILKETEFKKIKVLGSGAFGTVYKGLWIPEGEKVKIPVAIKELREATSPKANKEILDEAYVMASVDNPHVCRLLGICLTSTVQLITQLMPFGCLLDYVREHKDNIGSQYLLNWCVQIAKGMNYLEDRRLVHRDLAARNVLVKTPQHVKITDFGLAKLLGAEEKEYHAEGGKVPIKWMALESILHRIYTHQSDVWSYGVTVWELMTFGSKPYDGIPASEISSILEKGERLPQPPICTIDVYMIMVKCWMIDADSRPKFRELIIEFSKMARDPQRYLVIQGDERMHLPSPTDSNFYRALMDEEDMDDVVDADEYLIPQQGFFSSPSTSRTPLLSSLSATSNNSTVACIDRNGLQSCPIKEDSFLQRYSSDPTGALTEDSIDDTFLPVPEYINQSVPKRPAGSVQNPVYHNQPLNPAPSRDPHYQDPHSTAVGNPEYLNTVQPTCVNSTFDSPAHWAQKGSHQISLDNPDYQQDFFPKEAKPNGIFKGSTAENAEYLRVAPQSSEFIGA
Serine/threonine-protein kinase PRP4 homolog (Homo sapiens), sequence (Q13523 whole entry): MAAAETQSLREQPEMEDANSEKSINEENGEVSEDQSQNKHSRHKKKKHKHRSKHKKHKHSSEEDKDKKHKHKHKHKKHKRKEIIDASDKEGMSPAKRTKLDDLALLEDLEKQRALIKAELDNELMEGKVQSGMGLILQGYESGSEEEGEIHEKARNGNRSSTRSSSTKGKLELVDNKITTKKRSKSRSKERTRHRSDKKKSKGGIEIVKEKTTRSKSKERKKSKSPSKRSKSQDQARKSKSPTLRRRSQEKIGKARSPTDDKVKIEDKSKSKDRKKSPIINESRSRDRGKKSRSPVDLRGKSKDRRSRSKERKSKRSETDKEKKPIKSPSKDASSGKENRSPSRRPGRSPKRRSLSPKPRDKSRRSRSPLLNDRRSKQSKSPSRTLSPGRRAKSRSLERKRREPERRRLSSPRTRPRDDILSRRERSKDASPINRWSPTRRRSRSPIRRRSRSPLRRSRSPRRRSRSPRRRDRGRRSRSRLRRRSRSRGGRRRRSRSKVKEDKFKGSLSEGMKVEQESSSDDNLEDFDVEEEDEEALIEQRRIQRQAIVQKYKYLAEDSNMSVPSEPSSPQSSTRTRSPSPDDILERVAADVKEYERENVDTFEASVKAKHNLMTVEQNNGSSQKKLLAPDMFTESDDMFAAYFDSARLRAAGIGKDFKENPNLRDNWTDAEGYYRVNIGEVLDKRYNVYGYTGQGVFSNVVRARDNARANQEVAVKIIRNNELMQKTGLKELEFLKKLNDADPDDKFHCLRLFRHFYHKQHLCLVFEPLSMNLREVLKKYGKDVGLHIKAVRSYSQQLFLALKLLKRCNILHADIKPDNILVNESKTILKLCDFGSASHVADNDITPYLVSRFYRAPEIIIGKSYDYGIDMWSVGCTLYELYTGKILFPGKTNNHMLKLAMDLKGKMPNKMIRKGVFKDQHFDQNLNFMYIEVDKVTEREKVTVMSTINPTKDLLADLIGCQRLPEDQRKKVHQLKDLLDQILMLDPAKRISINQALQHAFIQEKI

COCCOc1nc(-c2ccc(Cl)nc2)nc2c1CN(C(=O)c1ncn3ccccc13)CC2 [THPP-1]
inactive: residual activity [1] 89% | residual activity [2] 100% | residual activity [3] 100% | residual activity [4] 88% | residual activity [5] 100% | residual activity [6] 100% | residual activity [7] 100% | residual activity [8] 78% | residual activity [9] 100% | residual activity [10] 67% | residual activity [11] 81% | residual activity [12] 93% | residual activity [13] 100% | inhibition [14] 15.7% | residual activity [15] 100% | residual activity [16] 100% | residual activity [17] 100% | inhibition [18] 7.79% | residual activity [19] 91% | residual activity [20] 98% | residual activity [21] 100% | residual activity [22] 100% | residual activity [23] 100% | residual activity [24] 88% | residual activity [25] 100% | residual activity [26] 71% | residual activity [27] 100% | residual activity [28] 96% | residual activity [29] 84% | residual activity [30] 100% | residual activity [31] 77% | residual activity [32] 100% | residual activity [33] 99%

CC(C)CC(=O)N1CCc2nc(-c3ccc(Br)cc3)nc(N(C)Cc3ccccc3)c2C1 [THPP-1-NC]
inactive: residual activity [1] 100% | residual activity [2] 100% | residual activity [3] 100% | residual activity [4] 100% | residual activity [5] 100% | residual activity [6] 100% | residual activity [7] 100% | residual activity [8] 78% | residual activity [9] 100% | residual activity [10] 78% | residual activity [11] 89% | residual activity [12] 97% | residual activity [13] 100% | inhibition [14] 7.93% | residual activity [15] 100% | residual activity [16] 100% | residual activity [17] 100% | inhibition [18] 7.59% | residual activity [19] 78% | residual activity [20] 87% | residual activity [21] 100% | residual activity [22] 92% | residual activity [23] 100% | residual activity [24] 97% | residual activity [25] 100% | residual activity [26] 70% | residual activity [27] 100% | residual activity [28] 100% | residual activity [29] 91% | residual activity [30] 100% | residual activity [31] 65% | residual activity [32] 92% | residual activity [33] 97%

Reference: ChEMBL document CHEMBL4507293 (2021)
